Columns and labels:
PC3 xenografted tumors = assay: Tumour growth in PC3-xenografted mice, cyclin B1 siRNA; format: in vivo
Protocol: FIGS. 11A-11D: NANOPEP-6 Cyclin B1 siRNA delivery upon topical and systemic injection. Athymic female nude mice were subcutaneously inoculated into the flank with 1×10^6 PC3 (11A and 11B) or HT29 (11C and 11D). Two to three weeks after tumour implant, when tumour size reached about 100 mm^3, animals were treated by intratumoral (11A and 11C) injections, every 3 days, with a solution either saline buffer solution (closed triangle), free Cyc-B1 siRNA (open triangle), control siRNA Cyc-B3 (closed box) or Cyc-B1 siRNA at 5 μg (open circle) and 10 μg (closed circle) complexed with NANOPEP-6 at a 1/20 molar ratio. […] Tumour diameter was measured in two directions at regular intervals using a digital calliper and tumour volume was calculated as length×width×height×0.52. […]
Tumour diameter was measured in two directions at regular intervals using a digital calliper and tumour volume was calculated as length×width×height×0.52. […] The statistical significance of the results was calculated by Student's t test and p<0.05 considered to be statistically significant. […]
The potential of NANOPEP-6 (VEPEP6/VEPEP6) to deliver cyclin B1 siRNA in vivo was first evaluated on human prostate carcinoma cell PC3-xenografted mice (FIG. 11A). The effect of local intratumoral administration of NANOPEP-6/siRNA particles (molar ratio 20/1) on the growth of established subcutaneous tumours was evaluated. […]

cyclin B1 = assay: Cyclin B1 silencing at protein (Western blotting) and mRNA (Quantigen) level; format: cell-based, Human; conditions: 200 nM siRNA complexed with VEPEP-6 at a 1/20 ratio
Protocol: FIGS. 6A-6C: VEPEP-6 dose response of Cyclin B1 silencing at the protein and mRNA levels on Hela (6A) and HS68 (6B) cells. Stock solution of VEPEP-6/siRNA ([…]) particles were prepared at a molar ratio of 1/20 (siRNA/VEPEP-6), and lower concentrations (from 200 nM to 0.125 nM) were obtained by serial dilution of the stock solution in PBS. HeLa (Panel A) and HS-68 (Panel B) cells (60% confluency) were overlaid with preformed complexes for 30 min, then fresh DMEM supplemented with 10% FCS was added directly to the cells, which were then returned to the incubator for 24 hrs. Cyclin B1 protein levels were determined by Western Blotting using Cdk2 as a control for quantification (white bars). Cyclin B1 mRNA levels were measured 12 hrs after transfection using Quantigen technology (black bars). Mismatched Cyc-B3 siRNA associated with VEPEP-6 (200 nM) and empty VEPEP-6 particles (20 μM) were used as a control. 6C: Dose-response of G2-arrest associated with Cyclin B1 silencing. HeLa (black bars) and HS68 (white bars) cells were treated with increasing concentrations of VEPEP-6/siRNA-Cyc-B1 from 0.25 nM to 20 nM. The cell cycle status was evaluated by FACS analysis. […]
Cyclin B1 mRNA and protein levels were determined 12 and 24 hrs following transduction, using Quantigen (Panomics Inc.) and Western blotting, respectively. […]

| Substance | inhibition of tumour growth (PC3 xenografted tumors; complexed with NANOPEP-6, 0.5 mg/kg) | effect on cyclin B1 levels and cell cycle progression (cyclin B1) | effect on tumour growth (PC3 xenografted tumors; controls: naked siRNA 100 (intratumoral or intravenous), carrier alone) |
| --- | --- | --- | --- |
| Cyc-B3: cyclin B1 siRNA harbouring two mismatches, control, SEQ ID No: 19/20 (chain 1 GGUGAAGAUCAGCAUGGCATT; chain 2 UGCCAUGUCGAUCUUCACCTT; chemistry not given here) | unable to inhibit tumour growth | no effect |  |
| naked siRNA: Cyc-B1 siRNA without carrier, SEQ ID No: 17/18 (chain 1 GGCGAAGAUCAACAUGGCATT; chain 2 UGCCAUGUUGAUCUUCGCCTT; chemistry not given here) |  |  | no significant effect |
